Laboratory results reported in patent publication US20240158446A1, “CYCLIC COMPOUND HAVING SELECTIVE INHIBITORY ACTION ON KRAS OVER HRAS AND NRAS” (CHUGAI SEIYAKU KABUSHIKI KAISHA, priority 2021, published 2024).

Legend:
[1] = target: GDP-bound KRAS wild-type protein (Homo sapiens, UniProt P01116); experiment: Binding to KRAS by surface plasmon resonance (SPR), Single Cycle Kinetics; conditions: SPR, Single Cycle Kinetics, GDP-bound KRAS wild-type protein; read-out: KRAS KD
[2] = target: GDP-bound NRAS wild-type protein (Homo sapiens, UniProt P01111); experiment: Binding to NRAS by surface plasmon resonance (SPR), Single Cycle Kinetics; conditions: SPR, GDP-bound NRAS wild-type protein vs GDP-bound KRAS wild-type protein
[3] = target: GDP-bound HRAS wild-type protein (Homo sapiens, UniProt P01112); experiment: Binding to HRAS by surface plasmon resonance (SPR), Single Cycle Kinetics; conditions: SPR, GDP-bound HRAS wild-type protein vs GDP-bound KRAS wild-type protein
[4] = test system: human lung cancer strain NCI-H441;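 also: cell proliferation inhibition after four days measured by CellTiter-Glo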

Chain of GDP-bound HRAS wild-type protein (P01112 whole entry): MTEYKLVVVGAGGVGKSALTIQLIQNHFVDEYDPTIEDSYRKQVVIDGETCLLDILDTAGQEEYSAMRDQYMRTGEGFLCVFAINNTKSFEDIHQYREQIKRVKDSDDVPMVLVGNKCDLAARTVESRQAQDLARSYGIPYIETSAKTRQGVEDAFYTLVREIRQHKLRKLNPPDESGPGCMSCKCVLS
Chain of GDP-bound KRAS wild-type protein (P01116 whole entry): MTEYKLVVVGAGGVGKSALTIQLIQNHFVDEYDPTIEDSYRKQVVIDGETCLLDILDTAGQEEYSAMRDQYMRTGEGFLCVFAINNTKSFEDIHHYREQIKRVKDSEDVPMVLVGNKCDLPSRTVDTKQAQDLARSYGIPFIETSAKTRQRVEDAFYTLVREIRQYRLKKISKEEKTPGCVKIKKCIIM
Chain of GDP-bound NRAS wild-type protein (P01111 whole entry): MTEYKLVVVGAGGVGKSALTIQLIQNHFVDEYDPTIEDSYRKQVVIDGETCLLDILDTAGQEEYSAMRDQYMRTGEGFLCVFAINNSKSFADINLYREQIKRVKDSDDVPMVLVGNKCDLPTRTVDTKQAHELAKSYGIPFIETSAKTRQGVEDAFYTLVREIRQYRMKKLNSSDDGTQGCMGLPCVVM

SMILES | Kd [1] | NRAS/KRAS (ratio of KD value for NRAS to KD value for KRAS) [2] | HRAS/KRAS (ratio of KD value for HRAS to KD value for KRAS) [3] | IC50 [4]
CCO[C@@H]1C[C@H]2C(=O)NC3(CC(C)(C)C3)C(=O)N(C)[C@@H](C3CCCC3)C(=O)N(C)[C@H](C(=O)N(C)CC)CC(=O)N(C)[C@@H](COC)C(=O)N[C@@H]([C@@H](C)CC)C(=O)N(C)CC(=O)N(C)[C@H]3C/C=C\CCN(C3=O)[C@@H](Cc3ccc(C)cc3)C(=O)N(C)CC(=O)N[C@@H](CCc3ccc(C(F)(F)F)c(OC)c3)C(=O)N2C1 [PP2392] | 0.11 nM | A (a compound having 10 or more and less than 20 is denoted as A) | A (a compound having 10 or more and less than 20 is denoted as A) | 25.4 nM
CCOC[C@H]1C(=O)N[C@@H]([C@@H](C)CC)C(=O)N(C)CC(=O)N(C)[C@H]2C/C=C\CCN(C2=O)[C@@H](Cc2ccc(C)cc2)C(=O)N(C)CC(=O)N[C@@H](CCc2ccc(C(F)(F)F)c(OC)c2)C(=O)N2C[C@H](C)C[C@H]2C(=O)NC2(CC(C)(C)C2)C(=O)N(C)[C@@H](C2CCCC2)C(=O)N(C)[C@H](C(=O)N(C)C)CC(=O)N1C [PP2393] | 0.12 nM | A (a compound having 10 or more and less than 20 is denoted as A) | A (a compound having 10 or more and less than 20 is denoted as A) | 28.2 nM
CCOC[C@H]1C(=O)N[C@@H]([C@@H](C)CC)C(=O)N(C)CC(=O)N(C)[C@H]2C/C=C\CCN(C2=O)[C@@H](Cc2ccc(C)cc2)C(=O)N(C)CC(=O)N[C@@H](CCc2ccc(C(F)(F)F)c(Cl)c2)C(=O)N2C[C@@H](C)C[C@H]2C(=O)NC2(CC(C)(C)C2)C(=O)N(C)[C@@H](C2CCCC2)C(=O)N(C)[C@H](C(=O)N(C)C)CC(=O)N1C [PP2394] | 0.12 nM | A (a compound having 10 or more and less than 20 is denoted as A) | B (a compound having 3 or more and less than 10 is denoted as B) | 8.3 nM
CCOC[C@H]1C(=O)N[C@@H]([C@@H](C)CC)C(=O)N(C)CC(=O)N(C)[C@H]2C/C=C\CCN(C2=O)[C@@H](Cc2ccc(C)cc2)C(=O)N(C)CC(=O)N[C@@H](CCc2ccc(C(F)(F)F)c(Cl)c2)C(=O)N2C[C@H](OCC)C[C@H]2C(=O)NC2(CC(C)(C)C2)C(=O)N(C)[C@@H](C2CCCC2)C(=O)N(C)[C@H](C(=O)N(C)C)CC(=O)N1C [PP2395] | 0.072 nM | A (a compound having 10 or more and less than 20 is denoted as A) | B (a compound having 3 or more and less than 10 is denoted as B) | 6.3 nM
CCO[C@@H]1C[C@H]2C(=O)NC3(CC(C)(C)C3)C(=O)N(C)[C@@H](C3CCCC3)C(=O)N(C)[C@H](C(=O)N(C)CC)CC(=O)N(C)[C@@H](COC)C(=O)N[C@@H]([C@@H](C)CC)C(=O)N(C)CC(=O)N(C)[C@H]3C/C=C\CCN(C3=O)[C@@H](Cc3ccc(C)cc3)C(=O)N(C)CC(=O)N[C@@H](CCc3cc(F)c(C(F)(F)F)c(F)c3)C(=O)N2C1 [PP2396] | 0.069 nM | A (a compound having 10 or more and less than 20 is denoted as A) | A (a compound having 10 or more and less than 20 is denoted as A) | 4.1 nM
CCOC[C@H]1C(=O)N[C@@H]([C@@H](C)CC)C(=O)N(C)CC(=O)N(C)[C@H]2C/C=C\CCN(C2=O)[C@@H](Cc2ccc(C)cc2)C(=O)N(C)CC(=O)N[C@@H](CCc2cc(F)c(C(F)(F)F)c(F)c2)C(=O)N2C[C@H](OCC)C[C@H]2C(=O)NC2(CC(C)(C)C2)C(=O)N(C)[C@@H](C2CCCC2)C(=O)N(C)[C@H](C(=O)N(C)C)CC(=O)N1C [PP2397] | 0.051 nM | A (a compound having 10 or more and less than 20 is denoted as A) | A (a compound having 10 or more and less than 20 is denoted as A) | 4.7 nM
CCO[C@@H]1C[C@H]2C(=O)NC3(CC(C)(C)C3)C(=O)N(C)[C@@H](C3CCCC3)C(=O)N(C)[C@H](C(=O)N(CC)CC)CC(=O)N(C)[C@@H](COC)C(=O)N[C@@H]([C@@H](C)CC)C(=O)N(C)CC(=O)N(C)[C@H]3C/C=C\CCN(C3=O)[C@@H](Cc3ccc(C)cc3)C(=O)N(C)CC(=O)N[C@@H](CCc3ccc(C(F)(F)F)c(OC)c3)C(=O)N2C1 [PP2398] | 0.23 nM | A (a compound having 10 or more and less than 20 is denoted as A) | A (a compound having 10 or more and less than 20 is denoted as A) | 11.4 nM
CC[C@H](C)[C@@H]1NC(=O)[C@H](COC)N(C)C(=O)C[C@@H](C(=O)N(CC)CC)N(C)C(=O)[C@H](C2CCCC2)N(C)C(=O)C2(CC(C)(C)C2)NC(=O)[C@@H]2C[C@H](C)CN2C(=O)[C@H](CCc2ccc(C(F)(F)F)c(Cl)c2)NC(=O)CN(C)C(=O)[C@H](Cc2ccc(C)cc2)N2CC/C=C\C[C@@H](C2=O)N(C)C(=O)CN(C)C1=O [PP2399] | 0.31 nM | AA (a compound having 20 or more is denoted as AA) | A (a compound having 10 or more and less than 20 is denoted as A) | 7.7 nM
CCO[C@@H]1C[C@H]2C(=O)NC3(CC(C)(C)C3)C(=O)N(C)[C@@H](C3CCCC3)C(=O)N(C)[C@H](C(=O)N(CC)CC)CC(=O)N(C)[C@@H](COC)C(=O)N[C@@H]([C@@H](C)CC)C(=O)N(C)CC(=O)N(C)[C@H]3C/C=C\CCN(C3=O)[C@@H](Cc3ccc(C)cc3)C(=O)N(C)CC(=O)N[C@@H](CCc3ccc(C(F)(F)F)c(Cl)c3)C(=O)N2C1 [PP2400] | 0.2 nM | A (a compound having 10 or more and less than 20 is denoted as A) | A (a compound having 10 or more and less than 20 is denoted as A) | 5.8 nM
CCOC[C@H]1C(=O)N[C@@H]([C@@H](C)CC)C(=O)N(C)CC(=O)N(C)[C@H]2C/C=C\CCN(C2=O)[C@@H](Cc2ccc(C)cc2)C(=O)N(C)CC(=O)N[C@@H](CCc2ccc(C(F)(F)F)c(Cl)c2)C(=O)N2C[C@H](OCC)C[C@H]2C(=O)NC2(CC(C)(C)C2)C(=O)N(C)[C@@H](C2CCCC2)C(=O)N(C)[C@H](C(=O)N(C)CC)CC(=O)N1C [PP2401] | 0.12 nM | A (a compound having 10 or more and less than 20 is denoted as A) | A (a compound having 10 or more and less than 20 is denoted as A) | 5.3 nM
CCCOC[C@H]1C(=O)N[C@@H]([C@@H](C)CC)C(=O)N(C)CC(=O)N(C)[C@H]2C/C=C\CCN(C2=O)[C@@H](Cc2ccc(C)cc2)C(=O)N(C)CC(=O)N[C@@H](CCc2ccc(C(F)(F)F)c(Cl)c2)C(=O)N2C[C@H](OCC)C[C@H]2C(=O)NC2(CC(C)(C)C2)C(=O)N(C)[C@@H](C2CCCC2)C(=O)N(C)[C@H](C(=O)N(C)C)CC(=O)N1C [PP2402] | 0.092 nM | A (a compound having 10 or more and less than 20 is denoted as A) | A (a compound having 10 or more and less than 20 is denoted as A) | 10.6 nM
CCO[C@@H]1C[C@H]2C(=O)NC3(CC(C)(C)C3)C(=O)N(C)[C@@H](C3CCCC3)C(=O)N(C)[C@H](C(=O)N(CC)CC)CC(=O)N(C)[C@@H](COC)C(=O)N[C@@H]([C@@H](C)CC)C(=O)N(C)CC(=O)N(C)[C@H]3C/C=C\CCN(C3=O)[C@@H](Cc3ccc(C)cc3)C(=O)N(C)CC(=O)N[C@@H](CCc3cc(F)c(C(F)(F)F)c(F)c3)C(=O)N2C1 [PP2403] | 0.22 nM | A (a compound having 10 or more and less than 20 is denoted as A) | A (a compound having 10 or more and less than 20 is denoted as A) | 7.2 nM
CCOC[C@H]1C(=O)N[C@@H]([C@@H](C)CC)C(=O)N(C)CC(=O)N(C)[C@H]2C/C=C\CCN(C2=O)[C@@H](Cc2ccc(C)cc2)C(=O)N(C)CC(=O)N[C@@H](CCc2cc(F)c(C(F)(F)F)c(F)c2)C(=O)N2C[C@H](OCC)C[C@H]2C(=O)NC2(CC(C)(C)C2)C(=O)N(C)[C@@H](C2CCCC2)C(=O)N(C)[C@H](C(=O)N(C)CC)CC(=O)N1C [PP2404] | 0.09 nM | A (a compound having 10 or more and less than 20 is denoted as A) | A (a compound having 10 or more and less than 20 is denoted as A) | 4.1 nM
CCOC[C@H]1C(=O)N[C@@H]([C@@H](C)CC)C(=O)N(C)CC(=O)N(C)[C@H]2C/C=C\CCN(C2=O)[C@@H](Cc2ccc(C)cc2)C(=O)N(C)CC(=O)N[C@@H](CCc2ccc(C(F)(F)F)c(OC)c2)C(=O)N2C[C@@H](C)C[C@H]2C(=O)NC2(CC(C)(C)C2)C(=O)N(C)[C@@H](C2CCCC2)C(=O)N(C)[C@H](C(=O)N(CC)CC)CC(=O)N1C [PP2405] | 0.31 nM | A (a compound having 10 or more and less than 20 is denoted as A) | A (a compound having 10 or more and less than 20 is denoted as A) | 8.6 nM
CCOC[C@H]1C(=O)N[C@@H]([C@@H](C)CC)C(=O)N(C)CC(=O)N(C)[C@H]2C/C=C\CCN(C2=O)[C@@H](Cc2ccc(C)cc2)C(=O)N(C)CC(=O)N[C@@H](CCc2ccc(C(F)(F)F)c(OC)c2)C(=O)N2C[C@H](OCC)C[C@H]2C(=O)NC2(CC(C)(C)C2)C(=O)N(C)[C@@H](C2CCCC2)C(=O)N(C)[C@H](C(=O)N(CC)CC)CC(=O)N1C [PP2406] | 0.29 nM | A (a compound having 10 or more and less than 20 is denoted as A) | A (a compound having 10 or more and less than 20 is denoted as A) | 21.3 nM
